# US8450332B2, “LIMK2 inhibitors, compositions comprising them, and methods of their use” (Lexicon Pharmaceuticals, Inc., priority 2008, dated 2013)
# Target: T1, LIMK2 (Homo sapiens, UniProt P53671)
# T1 construct: His tag (histidine-tagged; pFastBacHT vector); made in house; host or cells: Sf9 insect cells (BAC-to-BAC baculovirus system)
# Assay: In vitro LIMK2 inhibition assay (33P incorporation into myelin basic protein flash plates)
# Assay type: biochemical
# Experimental: Using the procedures described herein and methods known in the art, the additional compounds listed below in Table 1 were prepared. The LIMK2 IC50 data that is provided below for some of the compounds was determined using the assay described in Example 32.
# An in vitro assay used to identify LIMK2 inhibitors was developed. The analytical readout was the incorporation of ^33P from ATP substrate into immobilized myelin basic protein coated flash plates (Perkin Elmer Biosciences), which were counted on a scintillation counter equipped with a plate reader (TopCount, Packard Bioscience, Meriden, Conn.). Using 384 well flat MBP flashplates, total assay volume was 50 μl. The HTS program utilized a Biomek FX for dilution.
# For each assay, the ingredients and conditions were as follows: 200 ng of enzyme was incubated in assay buffer (1× assay buffer contains 30 mM HEPES (pH 8.0), 5 mM DTT, and 10 mM MgCl2), 10 μM ATP, 0.2 μCi [gamma-^33P]-ATP and 10 μM of potential inhibitory compound. The reaction was incubated at room temperature for 60 minutes, washed 3 times with 75 μl of stop/wash buffer (1× stop/was buffer contains 50 mM EDTA and 20 mM Tris (pH 7.4)), and then the plates were read on the scintillation counter. Different concentrations of staurosporine (400 nM, 200 nM, 100 nM and 50 nM; purchased from BIOMOL (Plymouth Meeting, Pa.)) were used as controls on each plate.
# T1 sequence (P53671 whole entry): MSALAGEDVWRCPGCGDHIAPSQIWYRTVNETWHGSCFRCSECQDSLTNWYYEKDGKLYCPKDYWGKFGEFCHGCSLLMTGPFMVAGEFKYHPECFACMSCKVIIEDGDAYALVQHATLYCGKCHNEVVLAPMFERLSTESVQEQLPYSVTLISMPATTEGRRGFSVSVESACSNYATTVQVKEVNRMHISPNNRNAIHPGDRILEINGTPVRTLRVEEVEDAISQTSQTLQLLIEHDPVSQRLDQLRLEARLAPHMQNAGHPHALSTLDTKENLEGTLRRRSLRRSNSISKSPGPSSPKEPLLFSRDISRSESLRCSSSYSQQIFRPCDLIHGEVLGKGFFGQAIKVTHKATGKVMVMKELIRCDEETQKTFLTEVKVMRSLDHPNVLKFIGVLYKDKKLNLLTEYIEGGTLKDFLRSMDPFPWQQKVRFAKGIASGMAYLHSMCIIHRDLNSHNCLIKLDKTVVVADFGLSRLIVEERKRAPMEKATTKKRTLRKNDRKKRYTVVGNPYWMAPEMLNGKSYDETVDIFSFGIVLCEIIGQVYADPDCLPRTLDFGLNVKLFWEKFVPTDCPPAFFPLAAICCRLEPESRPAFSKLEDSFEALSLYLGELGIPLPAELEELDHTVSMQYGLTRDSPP
row,IC50,SMILES
1,< 250 nM,"Cc1c[nH]c2ncnc(N3CCC(C)(C(=O)Nc4cccc(CC(=O)N(C)C)c4)CC3)c12 [N-(3-(2-(dimethylamino)-2-oxoethyl)phenyl)-4-methyl-1-(5-methyl-7H-pyrrolo[2,3-d]pyrimidin-4-yl)piperidine-4-carboxamide]"
2,< 250 nM,"Cc1c[nH]c2ncnc(N3CCC(CN)(C(=O)Nc4cccc(C(C)(C)C)c4)CC3)c12 [4-(aminomethyl)-N-(3-tert-butylphenyl)-1-(5-methyl-7H-pyrrolo[2,3-d]pyrimidin-4-yl)piperidine-4-carboxamide]"
3,< 250 nM,"Cc1c[nH]c2ncnc(N3CCC(CN)(C(=O)Nc4cccc(C(=O)N(C)C)c4)CC3)c12 [4-(aminomethyl)-N-(3-(dimethylcarbamoyl)phenyl)-1-(5-methyl-7H-pyrrolo[2,3-d]pyrimidin-4-yl)piperidine-4-carboxamide]"
4,< 250 nM,"Cc1c[nH]c2ncnc(N3CCC(CN)(C(=O)Nc4cccc(Cl)c4)CC3)c12 [4-(aminomethyl)-N-(3-chlorophenyl)-1-(5-methyl-7H-pyrrolo[2,3-d]pyrimidin-4-yl)piperidine-4-carboxamide]"
5,< 250 nM,"Cc1cccc(NC(=O)C2(CN)CCN(c3ncnc4[nH]cc(C)c34)CC2)c1 [4-(aminomethyl)-1-(5-methyl-7H-pyrrolo[2,3-d]pyrimidin-4-yl)-N-m-tolylpiperidine-4-carboxamide]"
6,< 250 nM,"Cc1c[nH]c2ncnc(N3CCC(C)(C(=O)Nc4cccc(NC(=O)C(C)C)c4)CC3)c12 [N-(3-isobutyramidophenyl)-4-methyl-1-(5-methyl-7H-pyrrolo[2,3-d]pyrimidin-4-yl)piperidine-4-carboxamide]"
7,< 250 nM,"Cc1c[nH]c2ncnc(N3CCC(C)(C(=O)Nc4cccc(C(F)(F)F)c4)CC3)c12 [4-methyl-1-(5-methyl-7H-pyrrolo[2,3-d]pyrimidin-4-yl) N-(3-(trifluoromethyl)phenyl)piperidine-4-carboxamide]"
8,< 250 nM,"Cc1cccc(NC(=O)C2(C)CCN(c3ncnc4[nH]cc(C)c34)CC2)c1 [4-methyl-1-(5-methyl-7H-pyrrolo[2,3-d]pyrimidin-4-yl)-N-m-tolylpiperidine-4-carboxamide]"

row,SMILES,IC50
1,"Cc1c[nH]c2ncnc(N3CCC(CNC(=O)C4(NC(=O)OC(C)(C)C)CC4)(C(=O)Nc4cccc(OC(=O)N(C)C)c4)CC3)c12 [3-(4-((1-tert-butoxycarbonylaminocyclopropanecarboxamido)methyl)-1-(5-methyl-7H-pyrrolo[2,3-d]pyrimidin-4-yl)piperidine-4-carboxamido)phenyl dimethylcarbamate]",< 250 nM
2,"COC(=O)NCC1(C(=O)Nc2cccc(OC(=O)N(C)C)c2)CCN(c2ncnc3[nH]cc(C)c23)CC1 [3-(4-((methoxycarbonylaminomethyl)-1-(5-methyl-7H-pyrrolo[2,3-d]pyrimidin-4-yl)piperidine-4-carboxamido)phenyl dimethylcarbamate]",< 250 nM
3,"Cc1c[nH]c2ncnc(N3CCC(C#N)(C(=O)Nc4cccc(OC(=O)N(C)C)c4)CC3)c12 [3-(4-cyano-1-(5-methyl-7H-pyrrolo[2,3-d]pyrimidin-4-yl)piperidine-4-carboxamido)phenyl dimethylcarbamate]",< 250 nM
4,"Cc1c[nH]c2ncnc(N3CCC(NCCNC(=O)OC(C)(C)C)(C(=O)Nc4cccc(OC(=O)N(C)C)c4)CC3)c12 [3-(4-(2-(tert-butoxycarbonylamino)ethylamino)-1-(5-methyl-7H-pyrrolo[2,3-d]pyrimidin-4-yl)piperidine-4-carboxamido)phenyl dimethylcarbamate]",< 250 nM
5,"C=CCC1(C(=O)Nc2cccc(OC(=O)N(C)C)c2)CCN(c2ncnc3[nH]cc(C)c23)CC1 [3-(4-allyl-1-(5-methyl-7H-pyrrolo[2,3-d]pyrimidin-4-yl)piperidine-4-carboxamido)phenyl dimethylcarbamate]",< 250 nM
6,"Cc1c[nH]c2ncnc(N3CCC(CNC(=O)CN(C)C)(C(=O)Nc4cccc(OC(=O)N(C)C)c4)CC3)c12 [3-(4-((2-(dimethylamino)acetamido)methyl)-1-(5-methyl-7H-pyrrolo[2,3-d]pyrimidin-4-yl)piperidine-4-carboxamido)phenyl dimethylcarbamate]",< 250 nM
